These results are taken from publication PMC6169518 (Environmental science & technology, 2016).

Several values for one entry are separate records, joined by “and”; a condition that tells them apart may be missing. Equal values may be shown once.

The subject of one data set is recombinant human CYPs. Nature of the data set: Oxidation of FLC by a panel of human recombinant CYP isozymes. The format is in vitro ADME. The conditions noted are these: 50 nM recombinant human CYPs, 60 min.
Data set [1] concerns glutathione S-transferase (GST).
The subject of a further data set is rats. The conditions noted are these: 45 and 90 days of dosing and last recovery day; cited from earlier work.
Data set [2] relates to Human liver microsomes (HLM). Nature of the data set: Human liver microsome incubation of FLC. Conditions: 60 min. A general note: Microsomes from liver hold many membrane-bound enzymes, among them those of drug oxidation.
A short description of data set [3]: Quantification of FLC in mouse serum after single oral administration. The format is in vivo. The conditions noted are these: mice.
Data set [4] in a line: 24-h excretion of unchanged FLC in mouse urine, feces and bile. The format is in vivo. The conditions noted are these: mice, oral, 0-24 h.
Data set [5] has as its system microsomal GST in human liver microsomes (HLM). The data set is described as follows: Kinetic analysis of GSH conjugation. It is filed as in vitro ADME.
Data set [6] concerns microsomal GST in mouse liver microsomes (MLM). The data set is described as follows: Kinetic analysis of GSH conjugation. The format is in vitro ADME.
Data set [7] concerns cytosolic GST in human liver cytosols (HLC). The data set is described as follows: Kinetic analysis of GSH conjugation. It is filed as in vitro ADME. The conditions noted are these: FLC-SG formation, Michaelis-Menten.
For data set [8], the system named is cytosolic GST in mouse liver cytosols (MLC). The data set is described as follows: Kinetic analysis of GSH conjugation. The format is in vitro ADME. The conditions noted are these: FLC-SG formation, Michaelis-Menten.
The next data set has as its system mice. The data set is described as follows: Toxicity of FLC in mice fed diet containing 0.5% FLC for 10 days. The format is in vivo. Conditions: diet containing 0.5% FLC vs control diet.
Data set [9] concerns Chinese Hamster Ovary K1 (CHO-K1) cells. Conditions: cited from earlier work.
For data set [10] the following is noted: rats and rabbits; cited from earlier work.
[11] abbreviates: HLM, FLC-SG formation, Michaelis-Menten.
[12] abbreviates: MLM, FLC-SG formation, Michaelis-Menten.

Take `O=C1C(Cl)C(CCl)C(O)N1c1cccc(C(F)(F)F)c1` (stereo not shown) [M5–2]: in the data set on recombinant human CYPs, the “CYP isozymes catalysing formation of the metabolite from FLC” value (“CYP isozymes catalysing formation” for short) is “CYP1A1, 1A2, and 3A4”.

Take `O=C1C(Cl)C(CO)CN1c1cccc(C(F)(F)F)c1` (stereo not shown) [M3]: the “CYP isozymes catalysing formation” value in the data set on recombinant human CYPs was “CYP1A1, 1A2, 2C8, 2C9, 2E1, and 3A4”.

For the compound `N[C@@H](CCC(=O)N[C@@H](CSC1C(=O)N(c2cccc(C(F)(F)F)c2)CC1CCl)C(=O)NCC(=O)O)C(=O)O` (stereo partly shown) [M13], the “M13 detected in buffer” value in [1] (buffer with GSH, without microsomes or cytosols) was “trace amount”. In data set [1] (microsomes vs cytosols, with GSH), the “formation of M13 in microsomes relative to cytosols” value is “more than 2 fold”.

As usually defined, the Km is the substrate concentration at which the rate is half of its maximum. As to `O=C1C(Cl)C(CCl)CN1c1cccc(C(F)(F)F)c1` (racemic) [FLC, (3RS,4RS;3RS,4SR)-3-chloro-4-chloromethyl-1-(α,α,α-tri-fluoro-m-tolyl)-2-pyrrolidone], the histopathological observations entry in the data set with rats is “testis and epididymis lesions were consistently observed”. Besides, the parent compound consumed entry in [2] (HLM supplemented with NADPH) is recorded as “Approximately 30%”. Further, in data set [2] (coincubation with GSH, NADPH and HLM), the “more consumption of FLC” value was determined as 40%. In addition, the “concentration of FLC in serum” value in [3] (high dose group (50 mg/kg oral), 4 h post-dose) came to 8020 ± 2810 nM; in [3] (high dose group (50 mg/kg oral), 24 h post-dose), 285 ± 76 nM; in data set [3] (low dose group (5 mg/kg oral), 4 h post-dose), 941 ± 220 nM; in data set [3] (low dose group (5 mg/kg oral), 24 h post-dose), 53 ± 25 nM. Besides, the “24-h excretion of FLC in bile” value in data set [4] (bile) was “undetectable”. Further, the “24-h excretion rate of FLC in feces” value in [4] (feces) is listed as 1.21−1.40%. For the same compound, the “maximum clearance (Vmax/Km) of GSH conjugation, HLM over HLC” value in data set [5] (HLM vs HLC) is “approximately 5.5 fold”. For the same compound, the Km came to 374 µM in [5] (setting [11]), 367 µM in data set [6] (setting [12]) and 148 µM in data set [7]. Also, the Vmax in [5] (setting [11]) was 5.63 pmol·min^−1·mg protein^−1; in [6] (setting [12]), 9.5 pmol·min^−1·mg protein^−1 and 9.50 pmol·min^−1·mg protein^−1; in data set [7], 0.404 pmol·min^−1·mg protein^−1; in [8], 4.65 pmol·min^−1·mg protein^−1. Moreover, the “maximum clearance (Vmax/Km) of GSH conjugation, MLM over MLC” value in data set [6] (MLM vs MLC) is “approximately 11.2 fold”. Moreover, in the data set with mice, the “Alanine transaminase (ALT)” value is reported as “elevated significantly”. The triglycerides entry with mice (hepatic) was “slightly increased”. Further, the aqueous peroxide result in the data set with mice (liver) is on record as “slightly increased”. The DNA damage entry in data set [9] is given as “induce single-strand DNA breaks”. In addition, the “excretion rate of unchanged FLC” value in data set [10] is reported as “less than 1.5 % of the applied dose”.

Consider `O=C1C(Cl)C(CCl)C(O)N1c1cccc(C(F)(F)F)c1` (stereo not shown) [M5–1], for which, in the data set on recombinant human CYPs, the “CYP isozymes catalysing formation” value is “CYP1A1, 1A2, and 3A4”.
